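How tested: cells in 96-well plates exposed to compound for 48 hours at five concentrations. At the GI50, growth is halved. TGI denotes the concentration required for complete inhibition of growth.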
Legend:
Experiment in all cases: growth of human tumour cells (NCI), 48 h
[1] = system: NCI-H23 lung
[2] = system: NCI-H460 lung
[3] = system: NCI-H522 lung
[4] = system: NCI/ADR-RES ovarian
[5] = system: OVCAR-3 ovarian
[6] = system: OVCAR-4 ovarian
[7] = system: OVCAR-5 ovarian
[8] = system: OVCAR-8 ovarian
[9] = system: PC-3 prostate
[10] = system: RPMI-8226 leukemia
[11] = system: RXF 393 renal
[12] = system: SF-268 CNS
[13] = system: SF-295 CNS
[14] = system: SF-539 CNS
[15] = system: SK-MEL-2 melanoma
[16] = system: SK-MEL-28 melanoma
[17] = system: SK-MEL-5 melanoma
[18] = system: SK-OV-3 ovarian
[19] = system: SN12C renal
[20] = system: SNB-19 CNS
[21] = system: SNB-75 CNS
[22] = system: SR leukemia
[23] = system: SW-620 colon
[24] = system: T-47D breast
[25] = system: TK-10 renal
[26] = system: U251 CNS
[27] = system: UACC-257 melanoma
[28] = system: UACC-62 melanoma
[29] = system: UO-31 renal

COC12C=C/C(=C(/C(=O)OCc3csc(SC)n3)C(=O)CCCCCCCCC3(OC)C=C/C(=C(/C(=O)OCc4cnc(SC)s4)C(=O)CCCCCCCC1)O3)O2 (configuration not stated)
TGI [1]: > 100 µM | GI50 [2]: 4.57 µM | TGI [2]: > 100 µM | GI50 [3]: 1.5 µM | TGI [3]: 21.1 µM | GI50 [4]: 31.3 µM | TGI [4]: > 100 µM | GI50 [5]: 2.74 µM | TGI [5]: > 100 µM | GI50 [6]: 3.19 µM | TGI [6]: > 100 µM | GI50 [7]: 7.63 µM | TGI [7]: > 100 µM | GI50 [8]: 2.08 µM | TGI [8]: 32.4 µM | GI50 [9]: 4.16 µM | TGI [9]: > 100 µM | GI50 [10]: 0.946 µM | TGI [10]: > 100 µM | GI50 [11]: 1.75 µM | TGI [11]: 3.52 µM | GI50 [12]: 5.75 µM | TGI [12]: > 100 µM | GI50 [13]: 3.33 µM | TGI [13]: 25.7 µM | GI50 [14]: 4.03 µM | TGI [14]: 19.8 µM | GI50 [15]: 3.69 µM | TGI [15]: 16.6 µM | GI50 [16]: 0.955 µM | TGI [16]: > 100 µM | GI50 [17]: 1.7 µM | TGI [17]: 3.56 µM | GI50 [18]: 9.06 µM | TGI [18]: > 100 µM | GI50 [19]: 3.63 µM | TGI [19]: > 100 µM | GI50 [20]: 8.6 µM | TGI [20]: > 100 µM | GI50 [21]: 7.61 µM | TGI [21]: 28.9 µM | GI50 [22]: 2.05 µM | TGI [22]: > 100 µM | GI50 [23]: 3.66 µM | TGI [23]: > 100 µM | GI50 [24]: 2.94 µM | TGI [24]: > 100 µM | GI50 [25]: 15.8 µM | TGI [25]: 74.8 µM | GI50 [26]: 3.98 µM | TGI [26]: 43.6 µM | GI50 [27]: 6.01 µM | TGI [27]: > 100 µM | GI50 [28]: 3.51 µM | TGI [28]: 35.2 µM | GI50 [29]: 4.96 µM | TGI [29]: > 100 µM

From PubChem BioAssay (NCI)
